Results taken from publication PMC8735877, “Flavonoids as tyrosinase inhibitors in in silico and in vitro models: basic framework of SAR using a statistical modelling approach” (Journal of Enzyme Inhibition and Medicinal Chemistry, 2021).
Read-outs that look alike come from different tables or passages of the source.

How the values were obtained:
[1] = molecular target: T1, mushroom tyrosinase (Agaricus bisporus, UniProt C7FF04); assay: Tyrosinase inhibition assay (L-DOPA oxidation, absorbance at 492 nm); format: biochemical;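 note: enzyme in phosphate buffer, compounds preincubated with enzyme, inhibition computed against blank absorbance, IC50 fitted by nonlinear regression, runs in triplicate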
T1 sequence (C7FF04 1-392): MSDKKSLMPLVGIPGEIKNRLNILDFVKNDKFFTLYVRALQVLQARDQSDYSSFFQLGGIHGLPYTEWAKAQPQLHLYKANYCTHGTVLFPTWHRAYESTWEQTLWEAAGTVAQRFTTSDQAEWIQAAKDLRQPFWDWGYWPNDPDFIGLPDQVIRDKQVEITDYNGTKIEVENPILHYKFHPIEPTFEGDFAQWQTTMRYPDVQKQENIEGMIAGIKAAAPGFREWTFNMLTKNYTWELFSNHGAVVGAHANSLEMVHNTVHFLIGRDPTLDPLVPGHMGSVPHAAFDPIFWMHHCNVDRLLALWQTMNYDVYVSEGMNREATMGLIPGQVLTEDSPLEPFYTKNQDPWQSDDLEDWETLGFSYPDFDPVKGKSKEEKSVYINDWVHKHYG
Experimental: The inhibitory effect on mushroom tyrosinase (TYase) was evaluated using a method reported in the literature with some modifications[21]. This assay was performed in PBS (100 mM, pH = 6.8 in 25 °C). Test samples 1–44 (80 µL) were preincubated with TYase solution (40 µL; 250 U/mL) at 25 °C for 10 min. Then, L-DOPA (80 µL; 0.19 mg/mL) was added, and after an additional 10 min at 25 °C, the absorbance was measured at 492 nm. […] The inhibitory effect was calculated as follows: TYaseInh (%) = [(B−C)/C] x 100 where B and C are the absorbances of the blank and the compounds, respectively. […] All tests were performed in triplicate.
Statistical analysis for IC50 calculations was performed using nonlinear regression using GraphPad Prism 9 (Trail, GraphPad Software, La Jolla, CA, USA). Data were collected as mean ± SD (n = 3), and the significance of differences was analysed using one-way analysis of variance (ANOVA).

[2] = molecular target: T1, mushroom tyrosinase; assay: Tyrosinase inhibition kinetic analysis (Lineweaver-Burk and Dixon plots); format: biochemical; conditions: for Type of inhibition: Lineweaver-Burk plots
Experimental: The enzyme reaction kinetics of these compounds were measured by constructing Lineweaver-Burk plots of inverse velocities (1/V), contrary to the inverse of substrate concentration (1/S)[22]^,[23]. Preincubations and measurement times were performed using the same protocol as described above. The enzyme concentration (250 U/mL) was kept constant in the presence of substrate solutions (L-DOPA) between 0.25 and 2 mM in all kinetic studies. The inhibitor concentrations for all test compounds were 0, 25, and 50 µM. The inhibitory types and inhibitory constant (Ki) values were described by 1/V versus inhibitor concentration plots (Dixon plot).

[3] = substrate L-DOPA, PBS pH 6.8, 25 °C, highest tested concentration 500 µM, mean ± SD, n = 3, read-out: IC50
[4] = Dixon plot, L-DOPA 0.25-2 mM, inhibitor 0, 25, 50 µM, ± SD, triplicate, read-out: Ki
[5] = L-DOPA 0.25-2 mM, inhibitor 0, 25, 50 µM

| Compound | IC50 [1] [µM] | IC50 [1, 3] [µM] | further results |
| --- | --- | --- | --- |
| COc1ccc(C2CC(=O)c3c(O)cc(OC)cc3O2)cc1 (stereo not drawn) [Compound 2, 7,4′-dimethoxynaringenin] | > 500 |  |  |
| O=C1CC(c2ccc(O)c(O)c2)Oc2c1ccc(O)c2O (stereo not drawn) [Compound 4, isookanin] |  | 58.43 ± 0.38 | Ki [2, 4]: 18.6 ± 0.53 µM; Type of inhibition [2, 5]: non-competitive |
| COc1ccc([C@@H]2CC(=O)c3c(O)cc(O)cc3O2)cc1O [Compound 5, hesperetin] | 237 ± 2.63 |  |  |
| COc1ccc(C2CC(=O)c3c(O)cc(OC4OC(COC5OC(C)C(O)C(O)C5O)C(O)C(O)C4O)cc3O2)cc1O (stereo not drawn) [Compound 6, hesperetin 7-O-rutinoside] | 131 ± 1.4 |  |  |
| O=c1cc(-c2ccccc2)oc2cccc(O)c12 [Compound 7, 5-hydroxyflavone] | 120 ± 1.48 |  |  |
| COc1ccccc1-c1cc(=O)c2c(O)cccc2o1 [Compound 8, 5-hydroxy-2′-methoxyflavone] | 122.1 ± 1.19 |  |  |
| COc1cccc(OC)c1-c1cc(=O)c2c(O)cccc2o1 [Compound 9, 5-hydroxy-2′,6′-dimethoxyflavone] | 127 ± 1.4 |  |  |
| O=c1cc(-c2ccccc2)oc2cc(O)cc(O)c12 [Compound 11, chrysin] | 129.4 ± 1.13 |  |  |
| O=c1cc(-c2ccc(O)cc2)oc2cc(O)cc(O)c12 [Compound 12, apigenin] | 160.5 ± 1.44 |  |  |
| O=c1cc(-c2ccc(O)cc2)oc2cc(OC3OC(CO)C(O)C(O)C3O)cc(O)c12 (stereo not drawn) [Compound 13, apigenin 7-O-glucoside] | 323.2 ± 1.48 |  |  |
| O=c1cc(-c2ccc(O)cc2)oc2c([C@@H]3O[C@H](CO)[C@@H](O)[C@H](O)[C@H]3O)c(O)cc(O)c12 [Compound 14, apigenin 8-C-glucoside] | 133 ± 1.83 |  |  |
| COc1ccc(-c2cc(=O)c3c(O)cc(O)cc3o2)cc1 [Compound 16, acacetin] | 207.9 ± 1.35 |  |  |
| O=c1cc(-c2ccc(O)c(O)c2)oc2cc(O)cc(O)c12 [Compound 17, luteolin] |  | 58.9 ± 0.78 | Ki [2, 4]: 11.3 ± 0.77 µM; Type of inhibition [2, 5]: non-competitive |
| O=c1cc(-c2ccc(O)c(O)c2)oc2cc(OC3OC(CO)C(O)C(O)C3O)cc(O)c12 (stereo not drawn) [Compound 18, luteolin 7-O-glucoside] | 415 ± 2.38 |  |  |
| O=c1cc(-c2ccc(O)c(O)c2)oc2cc(O)c([C@@H]3O[C@H](CO)[C@@H](O)[C@H](O)[C@H]3O)c(O)c12 [Compound 20, luteolin-6-C-glucoside] | 133 ± 2.32 |  |  |
| COc1ccc(-c2cc(=O)c3c(O)cc(O)c(C4OC[C@@H](O)[C@H](O)[C@H]4OC4O[C@H](CO)[C@@H](O)[C@H](O)[C@H]4O)c3o2)cc1O (stereo partly drawn) [Compound 22, 5,7,3′-trihydroxy-4′-methoxyflavone-8-C-xylopyranoside-2"-O-glucoside] |  | > 500 |  |
| CC(=O)Oc1ccc(-c2cc(=O)c3c(O)cc(O)c(C4OC[C@@H](O)[C@H](O)[C@H]4OC4O[C@H](CO)[C@@H](O)[C@H](O)[C@H]4O)c3o2)cc1O (stereo partly drawn) [Compound 23, 5,7,3′-trihydroxy-4′-acetoxyflavone-8-C-xylopyranoside-2"-O-glucoside] |  | > 500 |  |
| COc1cc(-c2cc(=O)c3c(O)cc(O)c(C4OC[C@@H](O)[C@H](O)[C@H]4OC4O[C@H](CO)[C@@H](OC(C)=O)[C@H](O)[C@H]4O)c3o2)ccc1OC(C)=O (stereo partly drawn) [Compound 25, 5,7-dihydroxy-3′-methoxy-4′-acetoxyflavone-8-C-xylopyranoside-2"-O-(4′"-acetoxy)-glucoside] |  | > 500 |  |

| Compound | IC50 [1] [µM] | IC50 [1, 3] [µM] | further results |
| --- | --- | --- | --- |
| O=c1c(O)c(-c2ccc(O)cc2)oc2cc(O)cc(O)c12 [Compound 26, kaempferol] |  | 65.1 ± 1.09 | Ki [2, 4]: 40.2 ± 0.46 µM; Type of inhibition [2, 5]: competitive |
| COc1c(O)cc(O)c2c(=O)c(O)c(-c3ccc(O)cc3)oc12 [Compound 27, 8-methoxykaempferol] |  | 290.5 ± 1.19 |  |
| COc1cc(O)c2c(=O)c(OC)c(-c3ccc(O)cc3)oc2c1 [Compound 28, kumatakenin] |  | > 500 |  |
| O=c1c(O[C@@H]2O[C@H](CO)[C@@H](O)[C@H](O)[C@H]2O)c(-c2ccc(O)cc2)oc2cc(O)cc(O)c12 [Compound 29, kaempferol 3-O-glucoside] | 481.5 ± 1.73 |  |  |
| O=C(O)C1OC(Oc2c(-c3ccc(O)cc3)oc3cc(O)cc(O)c3c2=O)C(O)C(O)C1O (stereo not drawn) [Compound 30, kaempferol 3-O-glucuronide] |  | 270 ± 1.23 |  |
| O=c1c(OC2OC(CO)C(O)C(O)C2O)c(-c2ccc(O)cc2)oc2cc(O)cc(O)c12 (stereo not drawn) [Compound 31, kaempferol 3-O-galactoside] | 186.9 ± 1.09 |  |  |
| O=C(/C=C/c1ccc(O)cc1)OC[C@H]1O[C@@H](Oc2c(-c3ccc(O)cc3)oc3cc(O)cc(O)c3c2=O)[C@H](O)[C@@H](O)[C@@H]1O [Compound 32, kaempferol 3-O-(6″-O-trans-p-coumaroyl)-glucoside] | 78.5 ± 0.84 |  | Ki [2]: 9.83 ± 0.57 µM; Type of inhibition [2, 5]: competitive |
| COc1ccc(-c2oc3cc(O)cc(O)c3c(=O)c2OC)cc1 [Compound 33, ermanin] |  | 231.7 ± 1.17 |  |
| COc1ccc(-c2oc3c(CC=C(C)C)c(O[C@@H]4O[C@H](CO)[C@@H](O)[C@H](O)[C@H]4O)cc(O)c3c(=O)c2O[C@@H]2O[C@@H](C)[C@H](O)[C@@H](O)[C@H]2O)cc1 [Compound 34, icariin] |  | 150 ± 1.84 |  |
| O=c1c(O)c(-c2ccc(O)c(O)c2)oc2cc(O)cc(O)c12 [Compound 35, quercetin] |  |  | Type of inhibition [2, 5]: competitive |
| O=C(O)C1OC(Oc2c(-c3ccc(O)c(O)c3)oc3cc(O)cc(O)c3c2=O)C(O)C(O)C1O (stereo not drawn) [Compound 36, quercetin 3-O-glucuronide] | 220.1 ± 1.14 |  |  |
| C[C@@H]1O[C@@H](OC[C@H]2O[C@@H](Oc3c(-c4ccc(O)c(O)c4)oc4cc(O)cc(O)c4c3=O)[C@H](O)[C@@H](O)[C@@H]2O)[C@H](O)[C@H](O)[C@H]1O [Compound 37, quercetin 3-O-rutinoside] | 141.7 ± 1.3 |  |  |
| CC1OC(OCC2OC(Oc3c(-c4ccc(O)c(O)c4)oc4cc(OC5OC(CO)C(O)C(O)C5O)cc(O)c4c3=O)C(O)C(O)C2O)C(O)C(O)C1O (stereo not drawn) [Compound 38, quercetin 3-O-rutinoside-7-O-glucoside] |  | 148 ± 1.57 |  |
| O=c1c(O)c(-c2cc(O)c(O)c(O)c2)oc2cc(O)ccc12 [Compound 41, robinetin] | 63.1 ± 0.85 |  | Ki [2]: 27.4 ± 0.62 µM; Type of inhibition [2, 5]: non-competitive |
| O=c1c(O)c(-c2cc(O)c(O)c(O)c2)oc2cc(O)cc(O)c12 [Compound 42, myricetin] | 100 ± 1.86 |  |  |
| O=c1c(-c2ccc(O)cc2)coc2cc(O)ccc12 [Compound 43, daidzein] | > 500 |  |  |
| O=c1c(-c2ccc(O)cc2)coc2cc(O)cc(O)c12 [Compound 44, genistein] | > 500 |  |  |
